From BindingDB's records for doi:10.1016/0006-2952(93)90073-6 (Janssen Research Foundation, 1993) come the findings set out here.

The structures appear in SMILES notation.

In the experiment the target is T1, 5-hydroxytryptamine receptor 1A (Homo sapiens, UniProt P08908).
T1 sequence (P08908 whole entry): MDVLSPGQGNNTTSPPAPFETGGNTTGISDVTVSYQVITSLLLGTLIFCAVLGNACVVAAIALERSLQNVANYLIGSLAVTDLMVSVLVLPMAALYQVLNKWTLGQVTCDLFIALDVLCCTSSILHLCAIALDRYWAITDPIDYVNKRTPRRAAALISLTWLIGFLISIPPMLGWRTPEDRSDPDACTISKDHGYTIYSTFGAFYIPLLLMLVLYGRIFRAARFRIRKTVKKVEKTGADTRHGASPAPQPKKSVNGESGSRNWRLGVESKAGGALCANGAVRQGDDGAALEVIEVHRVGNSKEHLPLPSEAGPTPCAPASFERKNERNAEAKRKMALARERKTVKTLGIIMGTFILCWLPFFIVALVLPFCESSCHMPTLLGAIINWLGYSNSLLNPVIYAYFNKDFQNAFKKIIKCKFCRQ

`Cc1nc2c(C)cccn2c(=O)c1CCN1CCC(c2noc3cc(F)ccc23)CC1` [CAS_129029-23-8]: the Ki – broadly, the dissociation constant of the complex between target and ligand, obtained from inhibition or displacement – came to 13.9 nM.

Regarding `Cn1cc(C(F)(F)F)nc1-c1ccc(OCC(O)CNCCOc2ccc(O)c(C(N)=O)c2)cc1` (configuration not stated), the affinity, expressed as Ki, was 7360 nM.

Consider `OC(CNCC(O)C1CCc2cc(F)ccc2O1)C1CCc2cc(F)ccc2O1` (configuration not stated) [CAS_99200-09-6], for which the Ki was determined as 25.8 nM.

`CCN1CCCC1CNC(=O)c1cc(S(N)(=O)=O)ccc1OC` (configuration not stated) [N-[(1-ethylpyrrolidin-2-yl)methyl]-2-methoxy-5-sulfamoylbenzamide]: the Ki was > 10000 nM.

As for `COc1ccc(CN(CCN(C)C)c2ccccn2)cc1`, the Ki is > 10000 nM.

For `O=c1ccc2[nH]cc(C3=CCNCC3)c2[nH]1` [CAS_127792-75-0], the Ki was found to be 3750 nM.

In the case of `CN1C[C@@H](NS(=O)(=O)N(C)C)C[C@@H]2c3cccc4c3c(cn4C)C[C@H]21` [MESULERGINE], the Ki was 197 nM.
